One data set concerns skin pH. Briefly: Test I: duration of skin pH changes. The class given is in vivo, human (volunteer subjects). The settings on record: text to Test I.
The test system of a further data set is hair-loss. Briefly: Hair-loss prevention efficacy of minoxidil combined with the two-component acid system (preliminary data). In kind it is in vivo.

Protocol for skin pH: Tests were performed on volunteer subjects using the procedures, conditions and ingredients substantially as described in connection with Test F above, while employing the proportion of active acidic ingredients indicated.

With `O=C(O)C(O)C(O)C(=O)O` (stereo not drawn) [(+)tartaric acid], the “duration of impact on skin pH changes” value in the data set on skin pH was 2 hours.
As to `Nc1cc(N2CCCCC2)nc(N)[n+]1[O-]` [minoxidil], the “efficacy of minoxidil in combination (in words)” value in the data set on hair-loss is “enhanced by combination with the inventive two-component acid system”.
Regarding `O=C(O)c1ccccc1O` [salicylic acid, 2-hydroxybenzoic acid], the “water solubility (in words)” value was “only moderately or sparingly water soluble”. Also, for the setting “text to Test I”, the water solubility result is on record as “less than 1 g. in 5 ml. of water”.

For the origin of these results see US5520918A, “Low irritant skin-cosmetic composition for daily topical use, its application and manufacture” (Mary Kay Cosmetics, Inc., priority 1994, dated 1996).
